Laboratory results: PMC6455008, “Methylation at the C-3′ in D-Ring of Strigolactone Analogs Reduces Biological Activity in Root Parasitic Plants and Rice” (Frontiers in Plant Science, 2019)
Where two headings read alike, the source gives them in different places.

Key:
[1] = system: rice d10 mutant; assay: Rice micro tillering bioassay (d10 mutant, hydroponic); assay type: in vivo; conditions: for number of tillers per plant: SL-deficient d10 mutant, hydroponic, twice a week up to 3 weeks, untreated d10 six tillers; for inhibition at 2.5 µM: Oryza sativa, read-out: tillering inhibition
Method: Rice seeds (d10) were sterilized with 2.5% sodium hypochlorite for 15 min. After thorough washing with sterile MilliQ water, the seeds were kept in water for 2 days at 30°C in the dark for imbibition and pre-germination. The pre-germinated seeds were then transferred to moist filter paper in 90-mm petri plates and incubated at 30°C overnight. The plates with germinated seeds were then shifted in a growth cabinet with fluorescent white light (130–180 μM m^−2 s^−1) for 1 week. Seven days-old seedlings were moved to 50-ml falcon tubes (one seedling per tube) containing modified half-strength Hoagland nutrient solution in greenhouse. After 1 week, rice plants were treated with 2.5 μM of each SL analog. Mock and GR24 (2.5 μM) were included as control treatments. Six applications of each SL analog were done two times in a week. After 3 weeks of application, number of tillers per plant, plant height, and fresh biomass were measured at final harvest.

[2] = Stability of SL analogs in aqueous solution by HPLC; assay type: physicochemical; conditions: pH 6.8, 3-day intervals up to 3 weeks
Method: The SL analogs GR24, AR8, MP13, and MP26 were first tested for their stability by high-performance liquid chromatography (HPLC) in an aqueous solution (50 μgml^−1, pH, 6.8) by adopting the previously described procedure with minor modifications ([Jamil et al., 2018]). Each compound (1 mg) was dissolved in 1-ml acetone, and then […] out of the analog solution were diluted with 150 μl ethanol and 750 μl water. Thereafter, 25 μl Indanol (1 mg ml^−1, internal standard) was spiked in 975-μl test solution. The time course of degradation was monitored by ultra-performance liquid chromatography (UPLC) analysis using a Zorbax Eclipse XDB-C18 column (3.5 μm, 4.6 mm× 150 mm), eluted first by 5% acetonitrile in water for 0.5 min, then by a gradient flow from 5 to 100% acetonitrile within 17.5 min, and by 100% acetonitrile for 5 min. The column was operated at 40°C with a flow rate of 0.35 ml min^−1, and the temperature of auto-sampler was set at 21°C. Compounds eluted from the column were detected with a photodiode array detector, and the relative quantity of non-degraded amount was calculated by integrating corresponding peak areas and comparison with the internal standard Indanol. Stability was monitored at 3-day intervals up to 3 weeks.

[3] = system: Striga seeds; assay: Stability of formulated SL analogs in aqueous solution under storage (Striga germination readout); assay type: physicochemical, Striga hermonthica; conditions: 1.0 μM
Method: (§1) The stability of formulated SL analogs was further tested in sand culture. About 1.5 ml of silver sand was added in each of 6 wells of 24-well plates. Then, 800 μl of formulated SL analogs (1.0 μM) was added in each of the six wells. The plates were sealed firmly with para-film, wrapped in aluminum foil, and placed at 30°C from day 1 to day 7. After 7 days, glass fiber discs containing preconditioned Striga seeds were placed on the top of each of the six wells and incubated in the dark at 30°C for 24 h. The germinated and non-germinated seeds were counted from each disc. In addition, the viability of formulated SL analogs was also tested in aqueous solution for 7 weeks at 30°C. About 800-μl aqueous solution of formulated SL analogs (1.0 μM) was added in a black Eppendorf tube weekly up to 6 weeks and incubated at 30°C. On the seventh week, about 50 μl of each analog was applied on a glass fiber disc containing preconditioned Striga seed and put again in the dark in sealed petri plates at 30°C for 24 h. Germinated and non-germinated seeds were counted from each disc.

[4] = system: S. hermonthica seeds; assay: Parasitic seed germination bioassay, Striga; assay type: in vivo, Striga hermonthica; conditions: for Striga germination rate: 1.0 μM, formulated and non-formulated, 24 h at 30°C; for EC50: Striga hermonthica
Method: Germination activity of SL analogs on S. hermonthica and P. aegyptiaca seeds was tested by following the procedure described before ([Jamil et al., 2012]). The preconditioned Striga and Phelipanche seeds were treated with 50 μl of each SL analog solution at a concentration range (10^−5–10^−12 M). GR24 and sterile MilliQ water were included as positive and negative controls, respectively. The treated seeds were allowed to germinate in the dark for 24 h at 30°C (for Striga) and for 1 week at 25°C (for Phelipanche). The germinated and non-germinated seeds were counted under a binocular microscope, and germination rate (in %) was calculated.
Collected data were analyzed statistically using statistical software package R (version 3.2.2).

[5] = system: Striga seeds; assay: Stability of formulated SL analogs in sand (Striga germination readout); assay type: physicochemical, Striga hermonthica; conditions: 1.0 μM; for Striga seed germinating activity before incubation in sand: no incubation
Method: as §1

[6] = system: Striga hermonthica; assay: Striga emergence in pots under greenhouse conditions (suicidal germination, rice host); assay type: in vivo; conditions: formulated 1.0 μM; for Striga emergence at 10 WAS / decrease in Striga emergence compared to mock at 10 WAS: 10 weeks after sowing; for Striga hermonthica emergence, 5 WAS / Striga hermonthica emergence, 6 WAS / Striga hermonthica emergence, 7 WAS / Striga hermonthica emergence, 8 WAS / Striga hermonthica emergence, 9 WAS / Striga hermonthica emergence, 10 WAS: mean ± SE; for Striga hermonthica emergence, 5 WAS: n=5, 5 weeks after sowing; for Striga hermonthica emergence, 6 WAS: n=5, 6 weeks after sowing; for Striga hermonthica emergence, 7 WAS: n=5, 7 weeks after sowing; for Striga hermonthica emergence, 8 WAS: n=5, 8 weeks after sowing; for Striga hermonthica emergence, 9 WAS: n=5, 9 weeks after sowing; for Striga hermonthica emergence, 10 WAS: n=5, 10 weeks after sowing; for percent decrease in Striga hermonthica emergence over mock, 8 WAS / percent decrease in Striga hermonthica emergence over mock, 9 WAS / percent decrease in Striga hermonthica emergence over mock, 10 WAS: negative = decrease
Method: About 10 mg of (ca 4,000) Striga seeds were thoroughly mixed in 2 L of sand and soil mixture (1:1) and added in 3-L perforated plastic pot containing 0.5 L of clean soil in the bottom. Striga seeds were first preconditioned by giving light irrigation and putting pots at 35°C in greenhouse for 10 days. Each pot was sprayed with 20-ml (1.0 μM) formulated SL analogs up to 10 days at 2-day intervals. A light irrigation was given next day of each application to move the compound to Striga seeds and they were allowed to germinate for suicidal death without host for another 1 week. Then, three rice seedlings (5 days old) were planted in the middle of each pot. The rice plants were grown under normal growth condition (30°C, 70% RH) for 8 weeks. Number of emerged Striga plants in each pot were counted.

[7] = target: T1, OsD14 (Oryza sativa subsp. japonica, UniProt Q10QA5); assay: In vitro YLG hydrolysis competition assay, OsD14; assay type: biochemical
T1 construct: made in house
T1 sequence (Q10QA5 1-318): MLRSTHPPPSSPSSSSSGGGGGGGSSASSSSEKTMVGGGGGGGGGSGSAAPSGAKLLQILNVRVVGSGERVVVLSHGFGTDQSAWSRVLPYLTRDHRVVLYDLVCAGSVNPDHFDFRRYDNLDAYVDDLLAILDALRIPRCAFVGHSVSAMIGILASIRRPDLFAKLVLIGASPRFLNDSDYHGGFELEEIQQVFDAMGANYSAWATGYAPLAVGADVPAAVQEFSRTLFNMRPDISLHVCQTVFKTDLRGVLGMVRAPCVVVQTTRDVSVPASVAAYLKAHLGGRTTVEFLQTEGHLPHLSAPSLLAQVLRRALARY
Method: Protein expression and purification of ShHTL7 and Oryza sativa D14 (OsD14) was carried out according to the procedure described earlier ([Jamil et al., 2018]). In vitro Yoshimulactone Green (YLG) hydrolysis assays ([Tsuchiya et al., 2015]) were carried out using 3.0 μM of protein ShHTL7 and OsD14 in a reaction buffer (1X PBS buffer, pH 7.3) with 0.1% DMSO at a 100-μl volume on a 96-well black plate (Greiner). For competitive assays, rac-GR24, AR8, MP13, and MP26 (at range between 0.01 and 50 μM) were co-incubated with 1.0 μM of YLG (Tokyo Chemical Industry Co. Ltd., product number E1238) for 60 min at room temperature. Fluorescent intensity was measured by spectraMax i5 (Molecular Devices) at excitation by 480 nm and detection by 520 nm. The change in fluorescence observed over the course of 1 h of YLG in buffer without protein was subtracted from the data collected in presence of protein. IC50 values were calculated by GraphPad (Prism 7).

[8] = read-out: EC50 Striga seed germination, formulated
[9] = read-out: EC50 Striga seed germination, non-formulated

Structure (SMILES) | number of tillers per plant ([1]; 2.5 μM) | stability by HPLC (relative amount of non-degraded analog) [2] | Striga germination rate after 1 week's storage ([3]; 30°C) | Striga germination rate [4] | EC50 [4, 8] | EC50 [4, 9] | Striga seed germinating activity after 1 day in sand ([5]; sand, 30°C) | Striga emergence at 10 WAS [6] | decrease in Striga emergence compared to mock at 10 WAS [6] | Striga hermonthica emergence, 5 WAS [6] | Striga hermonthica emergence, 6 WAS [6] | Striga hermonthica emergence, 7 WAS [6] | Striga hermonthica emergence, 8 WAS [6] | Striga hermonthica emergence, 9 WAS [6] | Striga hermonthica emergence, 10 WAS [6] | percent decrease in Striga hermonthica emergence over mock, 8 WAS [6] | percent decrease in Striga hermonthica emergence over mock, 9 WAS [6] | percent decrease in Striga hermonthica emergence over mock, 10 WAS [6] | IC50 [7] | inhibition at 2.5 µM [1] | further results
CC1=C(C)C(O/C=C(\C)C=O)OC1=O (stereo not shown) [AR8, reference compound] | 5.6 tillers per plant | slightly less stability than GR24 and MP26 but more than MP13 | total loss of activity | 9% | 990 nM | 690000 nM | completely lost its ability to induce Striga germination | 11 plants per pot | around 18% | 0.4±0.2 | 4.4±0.5 | 7.2±1.5 | 10.6±1.5 | 10.8±1.5 | 10.6±1.5 | -4% | -11% | -18% | 4870 ± 780 nM |  | 
CC1=CC(O/C=C(\C)C=O)OC1=O (stereo not shown) [MP13, (E)-2-methyl-3-[(4-methyl-5-oxo-2,5-dihydrofuran-2-yl)oxy]acrylaldehyde] | 4.5 tillers per plant | lowest stability throughout the whole 3 weeks of analysis | 9% | 37–70% | 110 nM | 640 nM | 10% | six | 52% | 0.0±0.0 | 1.6±1.0 | 2.6±0.6 | 4.8±0.6 | 5.8±0.6 | 6.2±0.7 | -56% | -51% | -52% | 3450 ± 1200 nM | 23% | Striga germination activity after 2 weeks of storage ([3]; 30°C, 2 weeks): not detectable; Striga germination rate before storage [3]: 53%; Striga seed germinating activity before incubation in sand [5]: around 60%; Striga seed germinating activity after 2 days in sand ([5]; sand, 30°C, 2 days): complete loss of the activity
COC(=O)/C=C/C(C)=C/OC1C=C(C)C(=O)O1 (stereo not shown) [MP26, (2E,4E)-methyl 4-methyl-5-(4-methyl-5-oxo-2,5-dihydrofuran-2-yloxy)penta-2,4-dienoate] | 2.5 tillers per plant | equal stability as GR24 up to 6 days of incubation |  | 37–70% | 98 nM | 350 nM | 27% | four | 69% | 0.0±0.0 | 0.8±0.6 | 1.4±0.4 | 2.6±0.4 | 3.6±0.8 | 4.0±0.9 | -76% | -68% | -69% | 2070 ± 800 nM | 57% | plant height compared to mock ([1]; d10 mutant, 2.5 μM): significant increase in plant height; Striga germination rate after 6 weeks of storage ([3]; 30°C, 6 weeks): 4%; Striga germination rate before storage [3]: 69%; Striga seed germinating activity before incubation in sand [5]: around 60%; Striga seed germinating activity after day 3 in sand ([5]; sand, 30°C, after day 3): not detectable
